Results reported in ChEMBL document CHEMBL1201862, “PubChem BioAssay data set” (2004).
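Values below derive from 48-hour exposures of cells grown in 96-well plates, with endpoints linearly interpolated between the two concentrations bracketing the appropriate inhibition level. GI50 marks 50% less growth.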 Calls of active or inactive are those of the source. Rule as the data show it: active = GI50 up to about 1.1 µM and inactive = higher.

Assays:
Experiment in all cases: NCI tumour cell line growth inhibition, 48 h
DU-145 = test system: DU-145
SK-MEL-2 = test system: SK-MEL-2
T47D = test system: T47D
COLO 205 = test system: COLO 205
HT-29 = test system: HT-29
NCI-H23 = test system: NCI-H23
HCC 2998 = test system: HCC 2998
OVCAR-4 = test system: OVCAR-4
M14 = test system: M14
SK-OV-3 = test system: SK-OV-3
PC-3 = test system: PC-3
TK-10 = test system: TK-10
HOP-92 = test system: HOP-92
Hs-578T = test system: Hs-578T
HOP-62 = test system: HOP-62
A498 = test system: A498
Malme-3M = test system: Malme-3M

Measured: GI50

COc1ccc(NC(=S)c2ccoc2C)cc1CC(=O)OC(C)C
inactive: DU-145 48.3 µM | SK-MEL-2 18.2 µM | T47D 24.8 µM | COLO 205 17.7 µM | HT-29 16.7 µM | NCI-H23 46.2 µM | HCC 2998 45.5 µM | OVCAR-4 30.1 µM | M14 24.9 µM | SK-OV-3 54 µM | PC-3 21.9 µM | TK-10 33.3 µM | HOP-92 20.6 µM | Hs-578T 45.2 µM

COC(=O)c1c(C(=O)OC)c2ccccn2c1-c1cc(C)cc2c1C(=O)C=CC2=O
inactive: DU-145 14 µM | SK-MEL-2 12.5 µM | T47D 4.21 µM | HOP-62 15.7 µM | A498 12.8 µM | COLO 205 5.22 µM | HT-29 11.2 µM | NCI-H23 8.09 µM | Malme-3M 10.2 µM | HCC 2998 13.9 µM | OVCAR-4 14.2 µM | M14 9.48 µM | SK-OV-3 > 10 µM | PC-3 14 µM | TK-10 14.1 µM | Hs-578T 12.9 µM

O=C(O)c1cnc(-n2[nH]c3c(c2=O)CCCC3)[nH]c1=O
inactive: DU-145 > 100 µM | SK-MEL-2 > 100 µM | T47D > 100 µM | A498 > 100 µM | COLO 205 > 100 µM | HT-29 > 100 µM | NCI-H23 > 100 µM | Malme-3M > 100 µM | OVCAR-4 > 100 µM | M14 > 100 µM | SK-OV-3 > 100 µM | PC-3 > 100 µM | TK-10 > 100 µM | HOP-92 83.9 µM | Hs-578T > 100 µM

Cc1ccccc1-n1c(=O)nc2n(-c3ccc(C(C)(C)C)cc3)c3ccccc3cc-2c1=O
inactive: DU-145 21.1 µM | SK-MEL-2 16.7 µM | T47D 26.2 µM | HOP-62 20.2 µM | A498 30.5 µM | COLO 205 18.5 µM | HT-29 16.5 µM | NCI-H23 21.7 µM | HCC 2998 18.1 µM | OVCAR-4 26.5 µM | M14 17.7 µM | PC-3 19.8 µM | TK-10 37.7 µM | HOP-92 21.4 µM | Hs-578T 24.7 µM

CC(=O)/C(=C\NC(N)=S)C(=O)Nc1ccccc1C
inactive: DU-145 > 100 µM | SK-MEL-2 > 100 µM | T47D > 100 µM | HOP-62 > 100 µM | A498 > 100 µM | COLO 205 > 100 µM | HT-29 > 100 µM | NCI-H23 > 100 µM | HCC 2998 > 100 µM | OVCAR-4 > 100 µM | M14 > 100 µM | SK-OV-3 > 100 µM | PC-3 > 100 µM | TK-10 > 100 µM | HOP-92 > 100 µM | Hs-578T > 100 µM

CCc1ccc2oc(-c3cc(O)c(-c4nc5cc(CC)ccc5o4)cc3O)nc2c1
inactive: DU-145 > 100 µM | SK-MEL-2 > 100 µM | T47D > 100 µM | HOP-62 > 100 µM | A498 > 100 µM | COLO 205 > 100 µM | NCI-H23 > 100 µM | HCC 2998 > 100 µM | M14 > 100 µM | SK-OV-3 > 100 µM | PC-3 > 100 µM | TK-10 > 100 µM | HOP-92 > 100 µM | Hs-578T > 100 µM

CCOC(=O)C(NC(=O)c1cccc(Cl)c1)(Nc1cccc(C)c1)C(F)(F)F (stereo not given)
inactive: DU-145 29.3 µM | SK-MEL-2 16.3 µM | T47D 19 µM | HOP-62 17.7 µM | COLO 205 20.1 µM | HT-29 13.3 µM | Malme-3M 16.6 µM | HCC 2998 16.7 µM | OVCAR-4 21.8 µM | PC-3 16.5 µM | TK-10 29.8 µM | HOP-92 15 µM | Hs-578T 14.8 µM

O=c1c2cc(-c3ccccc3)cnc2sn1-c1ccc(Oc2ccccc2)cc1
inactive: DU-145 80.9 µM | SK-MEL-2 > 100 µM | T47D 63 µM | HOP-62 22.1 µM | A498 25.3 µM | COLO 205 > 100 µM | HT-29 23.4 µM | NCI-H23 61 µM | Malme-3M 92.5 µM | HCC 2998 73.5 µM | OVCAR-4 19.9 µM | M14 46.3 µM | SK-OV-3 > 100 µM | PC-3 20.4 µM | HOP-92 30.7 µM

c1ccc(-c2cc(-c3ccccc3)nc(-c3ccncc3)c2)cc1
inactive: DU-145 > 100 µM | SK-MEL-2 > 100 µM | T47D > 100 µM | HOP-62 16.1 µM | COLO 205 > 100 µM | NCI-H23 91.4 µM | Malme-3M > 100 µM | HCC 2998 > 100 µM | OVCAR-4 16.4 µM | M14 42.4 µM | SK-OV-3 > 100 µM | PC-3 > 100 µM | TK-10 40.4 µM | Hs-578T > 100 µM

C1=C2C3=[N+](CCCC3)CC2Cc2ccsc21 (stereo not given)
inactive: DU-145 > 100 µM | SK-MEL-2 > 100 µM | T47D 22.8 µM | HOP-62 > 100 µM | A498 52.8 µM | COLO 205 > 100 µM | HT-29 > 100 µM | NCI-H23 > 100 µM | Malme-3M 63 µM | OVCAR-4 84.3 µM | M14 71.3 µM | SK-OV-3 > 100 µM | PC-3 45.1 µM | TK-10 87.7 µM | HOP-92 69.5 µM | Hs-578T > 100 µM

COc1cc(C(=O)Oc2c(C#N)sc3c2c(=O)n(-c2ccccc2)c(=S)n3-c2ccccc2)cc(OC)c1OC
inactive: DU-145 19.8 µM | T47D 25.5 µM | HOP-62 19.5 µM | A498 4.1 µM | COLO 205 15.8 µM | HT-29 3.4 µM | NCI-H23 18.1 µM | Malme-3M 9.14 µM | HCC 2998 19.6 µM | OVCAR-4 26.4 µM | M14 12.8 µM | SK-OV-3 22 µM | PC-3 17.1 µM | TK-10 27.7 µM | HOP-92 14.6 µM | Hs-578T 8.26 µM

COC(=O)[C@H](Cc1c[nH]c2ccccc12)NP(=O)(O)OC[C@H]1O[C@@H](n2cc(C)c(=O)[nH]c2=O)C[C@@H]1N=[N+]=[N-]
inactive: DU-145 > 100 µM | SK-MEL-2 > 100 µM | T47D > 100 µM | HOP-62 > 100 µM | COLO 205 > 100 µM | HT-29 > 100 µM | NCI-H23 > 100 µM | Malme-3M > 100 µM | HCC 2998 > 100 µM | OVCAR-4 > 100 µM | M14 > 100 µM | SK-OV-3 > 100 µM | PC-3 > 100 µM | TK-10 > 100 µM | HOP-92 > 100 µM | Hs-578T > 100 µM

O=C1Nc2ccccc2/C1=N/Nc1ccccc1[N+](=O)[O-]
inactive: DU-145 33.6 µM | SK-MEL-2 > 100 µM | T47D 38.5 µM | HOP-62 19.3 µM | A498 32.8 µM | COLO 205 69.7 µM | HT-29 > 100 µM | NCI-H23 16.3 µM | HCC 2998 44.4 µM | OVCAR-4 25.5 µM | M14 87.5 µM | SK-OV-3 17.1 µM | PC-3 57 µM | TK-10 69.2 µM | Hs-578T 29.2 µM
